In PMC10507085, “Pharmacological inhibition of TBK1/IKKε blunts immunopathology in a murine model of SARS-CoV-2 infection” (Nature Communications, 2023):

Tests used:
Experiment in all cases: biochemical
Set-up in all cases: KINOMEscan competition binding, DNA-tagged kinase against immobilised ligand, qPCR read-out
Conditions in all cases: read-out: Percent Control
TLK2 = TLK2 (Homo sapiens, UniProt Q86UE8)
RIPK1 = RIPK1 (Homo sapiens, UniProt Q13546)
MYLK2 = MYLK2 (Homo sapiens, UniProt Q9H1R3)
EPHB4 = EPHB4 (Homo sapiens, UniProt P54760)
SBK1 = SBK1 (Homo sapiens, UniProt Q52WX2)
PRKCI = PRKCI (Homo sapiens, UniProt P41743)
CAMK2G = CAMK2G (Homo sapiens, UniProt Q13555)
PIK3CD = PIK3CD (Homo sapiens, UniProt O00329)
PKMYT1 = PKMYT1 (Homo sapiens, UniProt Q99640)
MAP2K7 = MAP2K7 (Homo sapiens, UniProt O14733)
MAP3K9 = MAP3K9 (Homo sapiens, UniProt P80192)
BMPR1B = BMPR1B (Homo sapiens, UniProt O00238)
ABL1-phosphorylated = molecular target: T1, ABL1-phosphorylated (Homo sapiens, UniProt P00519)
T1 construct: phosphorylated

MST4 = molecular target: T2, MST4 (Homo sapiens, UniProt Q9P289)
T2 construct: gene STK26

MAPK12 = MAPK12 (Homo sapiens, UniProt P53778)
EPHA5 = EPHA5 (Homo sapiens, UniProt P54756)
CDK11B = CDK11B (Homo sapiens, UniProt P21127)
[1] = molecular target: T3, RSK3(Kin.Dom.1-N-terminal) (Homo sapiens, UniProt Q15349)
T3 construct: gene RPS6KA2; Kin.Dom.1 N-terminal

MATK = MATK (Homo sapiens, UniProt P42679)
CSNK1A1L = CSNK1A1L (Homo sapiens, UniProt Q8N752)
Sequence of CSNK1A1L (Q8N752 whole entry): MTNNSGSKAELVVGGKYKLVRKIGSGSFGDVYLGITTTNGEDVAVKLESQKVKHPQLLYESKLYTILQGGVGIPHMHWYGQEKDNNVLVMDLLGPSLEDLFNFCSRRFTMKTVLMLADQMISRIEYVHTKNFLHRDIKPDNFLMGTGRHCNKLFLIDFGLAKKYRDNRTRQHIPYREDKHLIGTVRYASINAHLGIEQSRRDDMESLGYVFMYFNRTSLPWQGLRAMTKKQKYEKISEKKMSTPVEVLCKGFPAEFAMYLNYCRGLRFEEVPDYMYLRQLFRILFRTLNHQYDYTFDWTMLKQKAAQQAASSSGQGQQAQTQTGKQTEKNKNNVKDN

Sequence of SBK1 (Q52WX2 whole entry): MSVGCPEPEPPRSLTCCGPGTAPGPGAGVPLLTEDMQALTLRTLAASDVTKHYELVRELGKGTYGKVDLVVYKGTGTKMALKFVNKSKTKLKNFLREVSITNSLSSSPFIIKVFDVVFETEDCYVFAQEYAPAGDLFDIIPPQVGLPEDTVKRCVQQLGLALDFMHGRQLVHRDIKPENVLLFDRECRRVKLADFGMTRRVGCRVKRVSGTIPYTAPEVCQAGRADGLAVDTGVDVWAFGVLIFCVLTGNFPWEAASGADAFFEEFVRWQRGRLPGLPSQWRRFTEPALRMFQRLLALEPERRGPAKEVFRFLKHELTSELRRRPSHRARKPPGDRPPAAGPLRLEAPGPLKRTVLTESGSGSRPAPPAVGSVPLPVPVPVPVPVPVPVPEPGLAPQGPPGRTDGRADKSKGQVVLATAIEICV
Sequence of PRKCI (P41743 whole entry): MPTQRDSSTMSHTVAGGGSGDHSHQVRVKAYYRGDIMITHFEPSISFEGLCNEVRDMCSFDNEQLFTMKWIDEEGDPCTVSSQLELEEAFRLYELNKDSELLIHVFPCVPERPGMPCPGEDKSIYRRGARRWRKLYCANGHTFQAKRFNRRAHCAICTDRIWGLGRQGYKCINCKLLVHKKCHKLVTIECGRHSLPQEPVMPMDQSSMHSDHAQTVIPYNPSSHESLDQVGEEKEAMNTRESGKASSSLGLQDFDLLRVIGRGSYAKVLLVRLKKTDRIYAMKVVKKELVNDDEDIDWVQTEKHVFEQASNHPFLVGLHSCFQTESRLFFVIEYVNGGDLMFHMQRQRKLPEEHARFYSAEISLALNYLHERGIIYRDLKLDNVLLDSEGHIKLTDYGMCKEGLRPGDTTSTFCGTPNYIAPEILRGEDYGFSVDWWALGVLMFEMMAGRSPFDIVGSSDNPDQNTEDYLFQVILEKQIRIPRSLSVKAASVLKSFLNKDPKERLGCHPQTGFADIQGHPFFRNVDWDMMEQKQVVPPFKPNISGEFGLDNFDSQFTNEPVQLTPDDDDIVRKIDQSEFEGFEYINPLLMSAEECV
Sequence of TLK2 (Q86UE8 whole entry): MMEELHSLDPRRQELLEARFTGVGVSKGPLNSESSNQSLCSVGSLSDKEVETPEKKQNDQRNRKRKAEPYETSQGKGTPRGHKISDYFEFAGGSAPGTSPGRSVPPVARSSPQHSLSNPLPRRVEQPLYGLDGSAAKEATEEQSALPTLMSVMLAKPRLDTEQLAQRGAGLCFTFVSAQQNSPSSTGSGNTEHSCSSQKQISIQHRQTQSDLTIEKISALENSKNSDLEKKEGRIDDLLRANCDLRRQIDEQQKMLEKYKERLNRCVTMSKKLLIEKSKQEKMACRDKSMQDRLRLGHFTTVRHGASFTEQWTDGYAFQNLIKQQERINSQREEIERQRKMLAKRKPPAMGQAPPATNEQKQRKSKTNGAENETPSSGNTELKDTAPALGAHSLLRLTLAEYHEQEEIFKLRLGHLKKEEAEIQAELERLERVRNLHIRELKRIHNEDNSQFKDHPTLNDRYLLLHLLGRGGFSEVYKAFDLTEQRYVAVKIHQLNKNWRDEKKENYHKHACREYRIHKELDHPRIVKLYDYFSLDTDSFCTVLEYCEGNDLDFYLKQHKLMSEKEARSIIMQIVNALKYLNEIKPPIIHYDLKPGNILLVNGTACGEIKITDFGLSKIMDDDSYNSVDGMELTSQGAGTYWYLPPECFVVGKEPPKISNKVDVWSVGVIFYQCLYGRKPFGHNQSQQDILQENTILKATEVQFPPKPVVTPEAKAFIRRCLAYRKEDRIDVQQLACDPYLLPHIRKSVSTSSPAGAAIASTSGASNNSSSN
Sequence of MYLK2 (Q9H1R3 whole entry): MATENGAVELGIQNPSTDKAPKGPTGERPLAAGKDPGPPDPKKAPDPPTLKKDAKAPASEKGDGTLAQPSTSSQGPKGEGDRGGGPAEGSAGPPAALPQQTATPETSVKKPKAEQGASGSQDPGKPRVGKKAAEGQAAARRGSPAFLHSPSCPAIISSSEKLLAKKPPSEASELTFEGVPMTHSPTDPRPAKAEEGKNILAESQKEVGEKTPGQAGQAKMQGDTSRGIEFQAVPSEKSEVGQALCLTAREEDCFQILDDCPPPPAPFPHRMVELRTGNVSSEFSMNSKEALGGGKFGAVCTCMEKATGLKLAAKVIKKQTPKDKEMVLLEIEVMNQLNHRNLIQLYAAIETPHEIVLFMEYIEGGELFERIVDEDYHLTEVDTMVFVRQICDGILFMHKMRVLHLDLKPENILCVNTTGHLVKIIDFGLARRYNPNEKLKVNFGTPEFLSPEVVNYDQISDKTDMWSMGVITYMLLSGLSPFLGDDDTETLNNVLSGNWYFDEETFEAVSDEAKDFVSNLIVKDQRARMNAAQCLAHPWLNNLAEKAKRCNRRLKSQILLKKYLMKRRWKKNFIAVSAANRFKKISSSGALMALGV
Sequence of MAP3K9 (P80192 whole entry): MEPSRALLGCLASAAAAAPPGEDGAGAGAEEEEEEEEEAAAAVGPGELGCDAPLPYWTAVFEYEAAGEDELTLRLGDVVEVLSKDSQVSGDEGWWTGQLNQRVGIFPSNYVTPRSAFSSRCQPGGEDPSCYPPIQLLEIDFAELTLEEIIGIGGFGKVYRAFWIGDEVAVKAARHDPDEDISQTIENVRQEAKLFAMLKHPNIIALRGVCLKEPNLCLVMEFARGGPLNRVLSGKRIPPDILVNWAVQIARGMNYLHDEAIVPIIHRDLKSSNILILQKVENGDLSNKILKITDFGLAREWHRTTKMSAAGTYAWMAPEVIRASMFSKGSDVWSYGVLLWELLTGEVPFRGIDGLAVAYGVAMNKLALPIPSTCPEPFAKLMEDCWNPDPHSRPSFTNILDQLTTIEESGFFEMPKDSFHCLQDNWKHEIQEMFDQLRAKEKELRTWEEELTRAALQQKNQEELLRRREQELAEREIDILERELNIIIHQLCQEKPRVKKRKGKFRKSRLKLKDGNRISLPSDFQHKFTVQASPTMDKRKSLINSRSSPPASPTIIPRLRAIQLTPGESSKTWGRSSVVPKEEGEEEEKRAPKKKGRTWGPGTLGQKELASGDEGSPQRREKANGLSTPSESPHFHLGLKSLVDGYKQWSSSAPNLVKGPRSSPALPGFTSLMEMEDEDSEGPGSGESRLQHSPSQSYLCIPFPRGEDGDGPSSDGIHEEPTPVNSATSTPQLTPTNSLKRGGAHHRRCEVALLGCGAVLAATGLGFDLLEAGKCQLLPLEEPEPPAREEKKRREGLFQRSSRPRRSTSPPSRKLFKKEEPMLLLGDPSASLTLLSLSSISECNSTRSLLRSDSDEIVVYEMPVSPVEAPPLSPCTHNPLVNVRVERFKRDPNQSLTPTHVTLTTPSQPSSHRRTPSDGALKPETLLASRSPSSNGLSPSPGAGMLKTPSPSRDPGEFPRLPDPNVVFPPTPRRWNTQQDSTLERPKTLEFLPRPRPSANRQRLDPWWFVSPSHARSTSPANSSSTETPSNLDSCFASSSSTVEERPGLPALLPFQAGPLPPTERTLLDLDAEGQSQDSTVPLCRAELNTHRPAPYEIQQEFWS
Sequence of CAMK2G (Q13555 whole entry): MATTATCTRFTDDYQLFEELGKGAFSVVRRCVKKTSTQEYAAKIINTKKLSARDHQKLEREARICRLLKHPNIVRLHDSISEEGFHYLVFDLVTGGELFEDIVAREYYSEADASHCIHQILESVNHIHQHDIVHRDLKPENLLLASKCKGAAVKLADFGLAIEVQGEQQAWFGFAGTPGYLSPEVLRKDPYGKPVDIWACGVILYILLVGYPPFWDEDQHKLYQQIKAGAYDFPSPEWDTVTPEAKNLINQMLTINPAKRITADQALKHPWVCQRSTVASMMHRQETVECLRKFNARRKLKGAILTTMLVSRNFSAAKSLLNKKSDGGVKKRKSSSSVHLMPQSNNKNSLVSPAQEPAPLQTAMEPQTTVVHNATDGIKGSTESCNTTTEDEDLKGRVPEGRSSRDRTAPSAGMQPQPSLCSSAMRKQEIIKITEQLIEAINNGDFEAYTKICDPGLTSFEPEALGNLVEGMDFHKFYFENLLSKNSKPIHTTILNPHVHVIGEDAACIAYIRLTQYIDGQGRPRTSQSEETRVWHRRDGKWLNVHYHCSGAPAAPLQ
Sequence of MAP2K7 (O14733 whole entry): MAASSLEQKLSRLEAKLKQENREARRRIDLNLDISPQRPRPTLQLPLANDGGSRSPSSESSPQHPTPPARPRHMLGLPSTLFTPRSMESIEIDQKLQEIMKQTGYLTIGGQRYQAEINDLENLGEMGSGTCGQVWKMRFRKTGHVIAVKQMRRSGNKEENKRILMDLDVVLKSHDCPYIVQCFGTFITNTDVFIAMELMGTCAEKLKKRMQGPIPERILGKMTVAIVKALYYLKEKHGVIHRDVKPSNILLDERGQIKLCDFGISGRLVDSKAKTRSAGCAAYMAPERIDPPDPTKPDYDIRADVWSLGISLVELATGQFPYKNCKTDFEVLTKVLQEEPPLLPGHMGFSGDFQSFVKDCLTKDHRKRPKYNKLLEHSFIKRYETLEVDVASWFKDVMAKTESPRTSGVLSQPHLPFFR

Oc1ccc(C2=Cc3ccc(O)cc3OC2)cc1 [compound 1, idronoxil]
remaining binding at 10 µM (TLK2): 86%
remaining binding at 10 µM (RIPK1): 78%
remaining binding at 10 µM (MYLK2): 80%
remaining binding at 10 µM (EPHB4): 90%
remaining binding at 10 µM (SBK1): 91%
remaining binding at 10 µM (PRKCI): 70%
remaining binding at 10 µM (CAMK2G): 85%
remaining binding at 10 µM (PIK3CD): 86%
remaining binding at 10 µM (PKMYT1): 78%
remaining binding at 10 µM (MAP2K7): 91%
remaining binding at 10 µM (MAP3K9): 82%
remaining binding at 10 µM (BMPR1B): 66%
remaining binding at 10 µM (ABL1-phosphorylated): 35%
remaining binding at 10 µM (MST4): 90%
remaining binding at 10 µM (MAPK12): 100%
remaining binding at 10 µM (EPHA5): 97%
remaining binding at 10 µM (CDK11B): 96%
remaining binding at 10 µM [1]: 89%
remaining binding at 10 µM (MATK): 61%
remaining binding at 10 µM (CSNK1A1L): 96%
